Source: PubChem BioAssay (NCI)
Values joined by “and” are separate entries in the source; they are usually repeats but may differ in a detail not shown here. Identical values can stand only once.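 Following 48 hours of exposure in 96-well plates, responses at five concentrations were used to interpolate endpoints linearly. GI50 = concentration required for 50% inhibition of growth. Definition used: TGI = concentration required for complete inhibition of growth.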

How the values were obtained:
Experiment in all cases: NCI anticancer screen, dose series, 48 h
M14 melanoma = test system: M14 melanoma
IGROV1 ovarian = test system: IGROV1 ovarian
HL-60(TB) leukemia = test system: HL-60(TB) leukemia
COLO 205 colon = test system: COLO 205 colon
NCI-H522 lung = test system: NCI-H522 lung
PC-3 prostate = test system: PC-3 prostate
MOLT-4 leukemia = test system: MOLT-4 leukemia
EKVX NSCLC = test system: EKVX NSCLC
NCI-H226 lung = test system: NCI-H226 lung
CCRF-CEM leukemia = test system: CCRF-CEM leukemia

SMILES | GI50 (M14 melanoma) | TGI (M14 melanoma) | GI50 (IGROV1 ovarian) | TGI (IGROV1 ovarian) | GI50 (HL-60(TB) leukemia) | TGI (HL-60(TB) leukemia) | GI50 (COLO 205 colon) | TGI (COLO 205 colon) | GI50 (NCI-H522 lung) | TGI (NCI-H522 lung) | GI50 (PC-3 prostate) | TGI (PC-3 prostate) | GI50 (MOLT-4 leukemia) | TGI (MOLT-4 leukemia) | GI50 (EKVX NSCLC) | TGI (EKVX NSCLC) | TGI (NCI-H226 lung) [µM] | TGI (CCRF-CEM leukemia) [µM] | GI50 (NCI-H226 lung) [µM] | GI50 (CCRF-CEM leukemia) [µM]
C[C@@H]1C[C@H](N)C[C@H](c2ccncc2NC(=O)c2ccc(F)c(-c3c(F)cccc3F)n2)C1 | 12.9 µM and 2.35 µM | 27.2 µM and > 10 µM | 5.05 µM and 8.68 µM | 21 µM and > 10 µM | 2.73 µM and 1.48 µM | 12.1 µM and > 10 µM | 4.38 µM and 3.84 µM | 22.1 µM and > 10 µM | 13.2 µM and > 10 µM | 28.6 µM and > 10 µM | 3.83 µM and 2.68 µM | 17.5 µM and > 10 µM | 4.91 µM and 5.14 µM | 20.6 µM and > 10 µM | 4.35 µM and > 10 µM | 21.1 µM and > 10 µM |  |  |  | 
Cc1ccc(OCC2CO2)c(Br)c1 (stereo not drawn) |  | 95.9 µM |  | 37.1 µM |  | > 100 µM |  | 32.3 µM |  |  |  | > 100 µM |  | 70.4 µM |  | 35.8 µM | 34.1 | > 100 |  | 
Oc1ccccc1-c1nn(CNc2ccc(Cl)cc2)c(=S)o1 | 28.3 µM | > 100 µM | > 100 µM | > 100 µM |  |  | 7.01 µM | > 100 µM | > 100 µM | > 100 µM | > 100 µM | > 100 µM | 20.7 µM | 74 µM | > 100 µM | > 100 µM | > 100 | > 100 | 14.1 | > 100
CSC(=O)C[C@@]12O[C@@H]([C@@H](C)C3CCC4[C@@H]5C(O)CC6=CC(=O)C=C[C@]6(C)C5CC[C@@]43C)C[C@](C)(O1)C(C)(C)O2 (stereo partly drawn) |  | 33.3 µM |  | 46.2 µM |  | 38.2 µM |  |  |  | 30 µM |  |  |  |  |  |  | 38.7 | 19.1 |  | 
CC(=O)OC12C(C)=C(C)C(=O)N1c1ccccc1N2C(C)=O (stereo not drawn) |  | > 100 µM |  | > 100 µM |  | > 100 µM |  | > 100 µM |  | > 100 µM |  |  |  | > 100 µM |  | > 100 µM | > 100 | > 100 |  | 
COC(=O)CCC(=O)Nc1ccc(Cl)cc1C |  | > 100 µM |  | > 100 µM |  | 13.6 µM |  | > 100 µM |  | > 100 µM |  |  |  | > 100 µM |  | > 100 µM | > 100 | > 100 |  | 
CCC(CC)n1cnc2c(-c3cnc(N)cn3)nc(N3CC4CCC(C3)O4)nc21 | 0.151 µM | > 100 µM | 0.0929 µM | 1.13 µM | 1.41 µM | > 100 µM | 0.269 µM | > 83 µM | 0.209 µM | > 100 µM | 0.104 µM | > 100 µM | 0.322 µM | 53.4 µM |  |  | > 100 | > 100 | 0.549 | 0.443
NC(=S)N/N=C/c1ccc(OC(=O)COc2cc(Cl)c(Cl)cc2Cl)cn1 | 2.38 µM | 5.75 µM | 7.65 µM | > 100 µM | 3.97 µM | 47.9 µM | 7.39 µM | > 100 µM | 3.17 µM | 67.5 µM | 4.59 µM | > 100 µM | 4.53 µM | > 100 µM |  |  | 56.7 | > 100 | 15.8 | 2.8
